Assay results reported in patent US9302999B2, “Substituted triazoles as herbicides” (E. I. DU PONT DE NEMOURS AND COMPANY, priority 2012, dated 2016).

Assays:
Type in all cases: in vivo
[1] = test system: sandbur (southern sandbur, Cenchrus echinatus); test: Test F pre-/postemergence: sandbur
Source text: (§1) Seeds of plant species selected from corn (Zea mays), soybean (Glycine max), velvetleaf (Abutilon theophrasti), lambsquarters (Chenopodium album), poinsettia, wild (wild poinsettia, Euphorbia heterophylla), pigweed, palmer (palmer pigweed, Amaranthus palmeri), waterhemp (common waterhemp, Amaranthus rudis), surinam grass (Brachiaria decumbens), crabgrass, Brazil (Brazilian crabgrass, Digitaria horizontalis), panicum, fall (fall panicum Panicum dichotomiflorum), crabgrass, large (large crabgrass, Digitaria sanguinalis), foxtail, giant (giant foxtail, Setaria faberii), foxtail, green (green foxtail Setaria viridis), goosegrass (Eleusine indica), ragweed (common ragweed, Ambrosia elatior), barnyardgrass (Echinochloa crus-galli), sandbur (southern sandbur, Cenchrus echinatus), arrowleaf sida (Sida rhombifolia), ryegrass, Italian (Italian ryegrass, Lolium multiflorum), dayflower, VA (Virginia (VA) dayflower, Commelina virginica), field bindweed (Convolvulus arvensis), cocklebur (common cocklebur, Xanthium strumarium), morningglory (Ipomoea coccinea), nightshade (eastern black nightshade, Solanum ptycanthum), kochia (Kochia scoparia), nutsedge, yellow (yellow nutsedge, Cyperus esculentus), johnsongrass (Sorghum halepense), smartweed (ladysthumb smartweed, Polygonum persicaria), and beggarticks (hairy beggarticks, Bidens pilosa), were planted into a silt loam soil and treated preemergence with test chemicals formulated in a non-phytotoxic solvent mixture which included a surfactant. At the same time, plants selected from these crop and weed species and also pigweed (Amaranthus retroflexus), waterhemp_RES1 (ALS/Triazine resistant common waterhemp, Amaranthus rudis) and waterhemp_RES2 (ALS/HPPD resistant common waterhemp, Amaranthus rudis) were planted in pots containing a planting medium comprising spaghnum peat moss, vermiculite, wetting agent and starter nutrients treated with postemergence applications of some of the test chemicals formulated in the same manner. Plants ranged in height from 2 to 18 cm for postemergence treatments (1- to 4-leaf stage).
(§2) Treated plants and controls were maintained in a greenhouse for 14 to 21 days, after which time all species were compared to controls and visually evaluated. Plant response ratings, summarized in Table E, are based on a scale of 0 to 100 where 0 is no effect and 100 is complete control. A dash (-) response means no test result.

[2] = test system: morningglory (Ipomoea coccinea); test: Test F pre-/postemergence: morningglory; conditions: Preemergence
Source text: as §1, §2

[3] = test system: dayflower, VA (Virginia (VA) dayflower, Commelina virginica); test: Test F pre-/postemergence: dayflower, VA
Source text: as §1, §2

[4] = test system: nutsedge, yellow (yellow nutsedge, Cyperus esculentus); test: Test F pre-/postemergence: nutsedge, yellow; conditions: Preemergence
Source text: as §1, §2

[5] = test system: pigweed (Amaranthus retroflexus); test: Test D pre-/postemergence: pigweed
How it was run: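 Pre- and postemergence herbicide screen. Soil for pre: silt loam; post medium: peat moss, vermiculite, wetting agent, starter nutrients. Plant stage at post: 1- to 4-leaf. Readout: visual % control, 14–21 days.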

[6] = test system: chamomile (scentless chamomile, Matricaria inodora); test: Test D pre-/postemergence: chamomile
Source text: Seeds of plant species selected from bluegrass (annual bluegrass, Poa annua), blackgrass (Alopecurus myosuroides), canarygrass (Phalaris minor), chickweed (common chickweed, Stellaria media), galium (catchweed bedstraw, Galium aparine), bromegrass, downy (downy bromegrass, Bromus tectorum), field poppy (Papaver rhoeas), field violet (Viola arvensis), foxtail, green (green foxtail, Setaria viridis), deadnettle (henbit deadnettle, Lamium amplexicaule), ryegrass, Italian (Italian ryegrass, Lolium multiflorum), kochia (Kochia scoparia), lambsquarters (Chenopodium album), oilseed rape (Brassica napus), pigweed (Amaranthus retroflexus), Russian thistle (Salsola iberica), chamomile (scentless chamomile, Matricaria inodora), speedwell (bird's-eye speedwell, Veronica persica), barley, spring (spring barley, Hordeum vulgare), wheat, spring (spring wheat, Triticum aestivum), buckwheat, wild (wild buckwheat, Polygonum convolvulus), mustard, wild (wild mustard, Sinapis arvensis), oat, wild (wild oat, Avena fatua), radish, wild (wild radish, Raphanus raphanistrum), windgrass (Apera spica-venti), barley, winter (winter barley, Hordeum vulgare), and wheat, winter (winter wheat, Triticum aestivum) were planted into a silt loam soil and treated preemergence with test chemicals formulated in a non-phytotoxic solvent mixture which included a surfactant. At the same time, these same crop and weed species were planted in pots containing the planting medium comprising spaghnum peat moss, vermiculite, wetting agent and starter nutrients and treated with postemergence applications of the test chemicals formulated in the same manner. Plants ranged in height from 2 to 18 cm (1- to 4-leaf stage).
as §2, with “controlled growth environment” for “greenhouse”, “days” for “days,”, “D,” for “E,”

[7] = Preemergence, 16 g ai/ha, scale 0 to 100, 0 no effect, 100 complete control
[8] = Preemergence, 31 g ai/ha, scale 0 to 100, 0 no effect, 100 complete control
[9] = Preemergence, 125 g ai/ha, scale 0 to 100
[10] = Preemergence, 250 g ai/ha, scale 0 to 100
[11] = 16 g ai/ha, scale 0 to 100, 0 no effect, 100 complete control
[12] = 31 g ai/ha, scale 0 to 100, 0 no effect, 100 complete control
[13] = Preemergence, 62 g ai/ha, scale 0 to 100
[14] = Postemergence, 31 g ai/ha, scale 0 to 100 (0 no effect, 100 complete control)
[15] = Postemergence, 62 g ai/ha, scale 0 to 100 (0 no effect, 100 complete control)
[16] = Postemergence, 125 g ai/ha, scale 0 to 100, 0 no effect, 100 complete control
[17] = Postemergence, 16 g ai/ha, scale 0 to 100
[18] = Postemergence, 250 g ai/ha, scale 0 to 100
[19] = Postemergence, 31 g ai/ha, scale 0 to 100
[20] = Postemergence, 62 g ai/ha, scale 0 to 100
[21] = Postemergence, 125 g ai/ha, scale 0 to 100

Row | Compound | Plant response rating, Sandbur [1, 7] | Plant response rating, Sandbur [1, 8] | Plant response rating, Sandbur [1, 9] | Plant response rating, Sandbur [1, 10] | Plant response rating, Morningglory [2, 11] | Plant response rating, Morningglory [2, 12] | Plant response rating, Morningglory ([2]; 125 g ai/ha, scale 0 to 100) | Plant response rating, Morningglory ([2]; 250 g ai/ha, scale 0 to 100) | Plant response rating, Dayflower, VA [3, 7] | Plant response rating, Dayflower, VA [3, 8] | Plant response rating, Dayflower, VA [3, 13] | Plant response rating, Dayflower, VA [3, 9] | Plant response rating, Dayflower, VA [3, 10] | Plant response rating, Nutsedge, Yellow [4, 11] | Plant response rating, Nutsedge, Yellow [4, 12] | Plant response rating, Nutsedge, Yellow ([4]; 125 g ai/ha, scale 0 to 100) | Plant response rating, Nutsedge, Yellow ([4]; 250 g ai/ha, scale 0 to 100) | further results
1 | Cc1nn(-c2ccc(F)cc2F)nc1Oc1ccnc(C(F)(F)F)c1 [Compound 146] | 0 | 0 | 25 | 70 | 0 | 0 | 0 | 25 | 0 | 0 | 10 | 35 | 35 | 0 | 0 | 0 | 0 | 
2 | CCc1nn(-c2ccc(F)cc2)nc1Cc1ccnc(C(F)(F)F)c1 [Compound 154] | 0 | 30 | 98 | 100 |  |  |  |  | 0 | 0 | 25 | 70 | 90 | 0 | 0 | 0 | 0 | 
3 | CCc1nn(-c2ccc(C(F)(F)F)cc2)nc1Cc1ccnc(C(F)(F)F)c1 [Compound 155] |  |  | 100 | 100 |  |  |  |  |  |  | 20 | 35 | 60 |  |  | 25 | 30 | Plant response rating: Pigweed [5, 14]: 75; Plant response rating: Pigweed [5, 15]: 95; Plant response rating: Pigweed [5, 16]: 95; Plant response rating, Pigweed [5, 17]: 70; Plant response rating, Pigweed [5, 7]: 60; Plant response rating, Pigweed [5, 8]: 80; Plant response rating, Pigweed [5, 13]: 100; Plant response rating, Pigweed [5, 9]: 100; Plant response rating: Chamomile [6, 14]: 70; Plant response rating: Chamomile [6, 15]: 80; Plant response rating: Chamomile [6, 16]: 85; Plant response rating, Chamomile [6, 17]: 60; Plant response rating, Chamomile [6, 7]: 5; Plant response rating, Chamomile [6, 8]: 80; Plant response rating, Chamomile [6, 13]: 95; Plant response rating, Chamomile [6, 9]: 100
4 | CCc1nn(-c2ccc(C(F)(F)F)cc2)nc1Oc1ccnc(C(F)(F)F)c1 [Compound 169] | 0 | 20 | 65 | 75 | 0 | 0 | 40 | 40 | 0 | 5 | 10 | 65 | 75 | 0 | 20 | 25 | 25 | Plant response rating, Sandbur [1, 18]: 25; Plant response rating, Sandbur [1, 17]: 15; Plant response rating, Sandbur [1, 19]: 15; Plant response rating, Sandbur [1, 20]: 20; Plant response rating, Sandbur [1, 21]: 20; Plant response rating, Dayflower, VA [3, 18]: 20; Plant response rating, Dayflower, VA [3, 17]: 10; Plant response rating, Dayflower, VA [3, 19]: 10; Plant response rating, Dayflower, VA [3, 20]: 10; Plant response rating, Dayflower, VA [3, 21]: 10
